The values below are quoted from earlier work in patent publication US7141382B1, “Methods for detection of IL-18 as an early marker for diagnosis of acute renal failure and predictor of mortality” (priority 2004, dated 2006).

Read-outs that look alike come from different tables or passages of the source.

The test system of this data set is freshly isolated proximal tubules from C57BL/6 mice. Particulars: P<0.01 vs. hypoxia, n=6.

As to `CC(C)[C@H](NC(=O)c1ccc2ccccc2n1)C(=O)N[C@@H](CC(=O)O)C(=O)COc1c(F)cccc1F` [OPH-001], the LDH release (25 minutes of hypoxic injury, hypoxic tubules preincubated with OPH-001 (100 μM), normoxic 11%±1%, vehicle (DMSO) 38%±6%) is listed as 22%±1%.

With “recombinant IL-18: exogenous recombinant IL-18 added to the proximal tubule suspension”, the LDH release (sublethal (12 minutes) hypoxia, tubules preincubated with recombinant IL-18 (1 μg per 6 ml of tubule suspension), normoxic 10%±1%, vehicle (saline) 13%±1%) was 18%±1%.
